In patent US12419874B2, “GLP-1R agonist compound and use thereof” (Chongqing Pharmaceutical Research Institute Co., Ltd., priority 2024, dated 2025) one finds EC50 data, which are given here for 31 compounds.

Bounds are passed on as bounds.

The target in the assay is GLP-1R (Homo sapiens, UniProt P43220). In words: GLP-1R agonistic activity by One-Lite luciferase assay in HEK293-GLP-1R-luc cells (Example 59). Format: cell-based. Particulars: 6 h incubation, read-out: cAMP EC50. The procedure: The agonistic activities of the compounds of the present disclosure on GLP-1R were evaluated by detecting the generation of cAMP.
Sequence of GLP-1R (P43220 24-463): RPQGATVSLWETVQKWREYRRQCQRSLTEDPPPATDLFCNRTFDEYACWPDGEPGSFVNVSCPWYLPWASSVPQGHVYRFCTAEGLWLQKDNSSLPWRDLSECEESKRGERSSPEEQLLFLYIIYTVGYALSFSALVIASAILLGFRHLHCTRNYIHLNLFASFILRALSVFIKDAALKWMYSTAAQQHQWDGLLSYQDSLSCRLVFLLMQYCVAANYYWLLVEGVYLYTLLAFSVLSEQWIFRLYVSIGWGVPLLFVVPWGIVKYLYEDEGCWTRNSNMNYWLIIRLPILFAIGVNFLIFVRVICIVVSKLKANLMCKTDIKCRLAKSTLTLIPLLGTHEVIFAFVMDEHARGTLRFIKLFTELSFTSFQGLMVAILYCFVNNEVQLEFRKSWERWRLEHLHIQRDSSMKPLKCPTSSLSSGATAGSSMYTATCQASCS
• (1) Cell line: HEK293-GLP-1R-luc Stable Cell Line (Cobioer, CBP71117); • (2) Culture medium: DMEM+10% FBS (Gibco); • (3) Kit: One-Lite™ kit Luciferase Assay System (Vazyme). 2. Experimental Procedures • (1) HEK293-GLP1R cells were inoculated in a 96-well plate at a density of 30000 cells per well; • (2) 10× working solution of each compound was formulated; • (3) 10 μL of 10× working solution of each compound was added to corresponding well and incubated at 37° C. for 6 h; • (4) 100 μL of One-Lite Luciferase Assay Substrate formulated using One-Lite Luciferase Assay Buffer was added to each well; • (5) The plate was incubated at room temperature for 3 min; • (6) The plate was read by a multimode microplate reader to detect chemiluminescence. 3. Data Analysis • (1) % Activity was calculated by the following formula: % Activity=100−(Signalcmpd−SignalAve-PC)/(SignalAve-VC−SignalAve-PC)×100 • (2) The dose-response curve was plotted to calculate EC50: Y=Bottom+(Top−Bottom)/(1+10^(Log EC50−X)*HillSlope)) • X: log of agonist concentration; Y: Activity. 4. Experimental Results
What is called EC50 is the concentration that produces a half-maximal response. Turning to `Cc1cc(-n2nc3c(c2-n2ccn(-c4ccc5c(ccn5C)c4F)c2=O)[C@H](C)N(C(=O)c2cc4cc([C@H]5CCOC(C)(C)C5)ccc4n2[C@@]2(c4noc(=O)[nH]4)C[C@@H]2C)CC32CCCNC2)cc(C)c1F` (single isomer, unassigned) [Compound 51-A], the EC50 is at most 20 nM. Regarding `Cc1cc(-n2nc3c(c2-n2ccn(-c4ccc5c(ccn5C)c4F)c2=O)[C@H](C)N(C(=O)c2cc4cc([C@H]5CCOC(C)(C)C5)ccc4n2[C@@]2(c4noc(=O)[nH]4)C[C@@H]2C)CC32CCCNC2)cc(C)c1F` (single isomer, unassigned) [Compound 51-B], the EC50 was at most 20 nM.

`Cc1cc(-n2nc3c(c2-n2ccn(-c4ccc5c(cnn5C)c4F)c2=O)[C@H](C)N(C(=O)c2cc4cc([C@H]5CCOC(C)(C)C5)ccc4n2[C@@]2(c4noc(=O)[nH]4)C[C@@H]2C)CC32CCCN(C)C2)cc(C)c1F` (single isomer, unassigned) [Compound 53-A]: the half-maximal effective concentration (EC50) is at most 20 nM.

Turning to `Cc1cc(-n2nc3c(c2-n2ccn(-c4ccc5c(cnn5C)c4F)c2=O)[C@H](C)N(C(=O)c2cc4cc(C5CCOC(C)(C)C5)ccn4c2C2(c4noc(=O)[nH]4)CC2)CC32CC2)cc(C)c1F` (single isomer, unassigned) [Compound 185-A], the EC50 is over 300 nM. In the case of `Cc1cc(-n2nc3c(c2-n2ccn(-c4ccc5c(cnn5C)c4F)c2=O)[C@H](C)N(C(=O)c2cc4cc(C5CCOC(C)(C)C5)ccn4c2C2(c4noc(=O)[nH]4)CC2)CC32CC2)cc(C)c1F` (single isomer, unassigned) [Compound 185-B], the EC50 was 20 to 100 nM. For `C[C@H]1c2c(nn(-c3ccc(F)c(C4CC4)c3)c2-n2ccn(-c3ccc4c(cnn4C)c3F)c2=O)C2(CC2)CN1C(=O)c1cc2cc(C3CCOC(C)(C)C3)ccn2c1C1(c2noc(=O)[nH]2)CC1` (single isomer, unassigned) [Compound 186-A] the value was over 300 nM; for `C[C@H]1c2c(nn(-c3ccc(F)c(C4CC4)c3)c2-n2ccn(-c3ccc4c(cnn4C)c3F)c2=O)C2(CC2)CN1C(=O)c1cc2cc(C3CCOC(C)(C)C3)ccn2c1C1(c2noc(=O)[nH]2)CC1` (single isomer, unassigned) [Compound 186-B], 20 to 100 nM.

As for `Cc1cc(-n2nc3c(c2-n2ccn(-c4ccc5c(cnn5C)c4F)c2=O)[C@H](C)N(C(=O)c2cc4cc([C@H]5CCOC(C)(C)C5)ccc4n2[C@@]2(c4noc(=O)[nH]4)C[C@@H]2C)CC32CNC2)cc(C)c1F` [Compound 15], the EC50 is at most 20 nM. Turning to `Cc1cc(-n2nc3c(c2-n2ccn(-c4ccc5c(cnn5C)c4F)c2=O)[C@H](C)N(C(=O)c2cc4cc([C@H]5CCOC(C)(C)C5)ccc4n2[C@@]2(c4noc(=O)[nH]4)C[C@@H]2C)CC32COC2)cc(C)c1F` [Compound 21], the EC50 is at most 20 nM.

Regarding `Cc1cc(-n2nc3c(c2-n2ccn(-c4ccc5c(cnn5C)c4F)c2=O)[C@H](C)N(C(=O)c2cc4cc([C@H]5CCOC(C)(C)C5)ccc4n2[C@@]2(c4noc(=O)[nH]4)C[C@@H]2C)CC32CCC2)cc(C)c1F` [Compound 23], the EC50 is at most 20 nM. For `Cc1cc(-n2nc3c(c2-n2ccn(-c4ccc5c(cnn5C)c4F)c2=O)[C@H](C)N(C(=O)c2cc4cc([C@H]5CCOC(C)(C)C5)ccc4n2[C@@]2(c4noc(=O)[nH]4)C[C@@H]2C)CC32CCCC2)cc(C)c1F` [Compound 25], the EC50 is at most 20 nM. Take `Cc1cc(-n2nc3c(c2-n2ccn(-c4ccc5c(cnn5C)c4F)c2=O)[C@H](C)N(C(=O)c2cc4cc([C@H]5CCOC(C)(C)C5)ccc4n2[C@@]2(c4noc(=O)[nH]4)C[C@@H]2C)CC32CCOC2)cc(C)c1F` (stereo partly shown) [Compound 29]: the EC50 is at most 20 nM. With `Cc1cc(-n2nc3c(c2-n2ccn(-c4ccc5c(cnn5C)c4F)c2=O)[C@H](C)N(C(=O)c2cc4cc([C@H]5CCOC(C)(C)C5)ccc4n2[C@@]2(c4noc(=O)[nH]4)C[C@@H]2C)CC32CCCN2)cc(C)c1F` (stereo partly shown) [Compound 31], the EC50 is at most 20 nM. As for `Cc1cc(-n2nc3c(c2-n2ccn(-c4ccc5c(cnn5C)c4F)c2=O)[C@H](C)N(C(=O)c2cc4cc([C@H]5CCOC(C)(C)C5)ccc4n2[C@@]2(c4noc(=O)[nH]4)C[C@@H]2C)CC32CCCCC2)cc(C)c1F` [Compound 37], the EC50 was 20 to 100 nM. In the case of `Cc1cc(-n2nc3c(c2-n2ccn(-c4ccc5c(cnn5C)c4F)c2=O)[C@H](C)N(C(=O)c2cc4cc([C@H]5CCOC(C)(C)C5)ccc4n2[C@@]2(c4noc(=O)[nH]4)C[C@@H]2C)CC32CCCCO2)cc(C)c1F` (stereo partly shown) [Compound 39], the EC50 was at most 20 nM. Regarding `Cc1cc(-n2nc3c(c2-n2ccn(-c4ccc5c(cnn5C)c4F)c2=O)[C@H](C)N(C(=O)c2cc4cc([C@H]5CCOC(C)(C)C5)ccc4n2[C@@]2(c4noc(=O)[nH]4)C[C@@H]2C)CC32CCN(C=O)CC2)cc(C)c1F` [Compound 64], the EC50 is at most 20 nM.

For the compound `Cc1cc(-n2nc3c(c2-n2ccn(-c4ccc5c(cnn5C)c4F)c2=O)[C@H](C)N(C(=O)c2cc4cc([C@H]5CCOC(C)(C)C5)ccc4n2[C@@]2(c4noc(=O)[nH]4)C[C@@H]2C)CC32CCN(C)C2)cc(C)c1F` (stereo partly shown) [Compound 79], the EC50 is at most 20 nM.

On to `Cc1cc(-n2nc3c(c2-n2ccn(-c4ccc5c(cnn5C)c4F)c2=O)[C@H](C)N(C(=O)c2cc4cc([C@H]5CCOC(C)(C)C5)ccc4n2[C@@]2(c4noc(=O)[nH]4)C[C@@H]2C)CC32CCN(C=O)C2)cc(C)c1F` (stereo partly shown) [Compound 83], for which the EC50 is at most 20 nM. Next, `CC(=O)N1CCC2(CC1)CN(C(=O)c1cc3cc([C@H]4CCOC(C)(C)C4)ccc3n1[C@@]1(c3noc(=O)[nH]3)C[C@@H]1C)[C@@H](C)c1c2nn(-c2cc(C)c(F)c(C)c2)c1-n1ccn(-c2ccc3c(cnn3C)c2F)c1=O` [Compound 91]: at most 20 nM. Regarding `C[C@H]1C[C@]1(c1noc(=O)[nH]1)n1c(C(=O)N2C3CCCC2c2c(nn(-c4ccc(F)c(C5CC5)c4)c2-n2ccn(-c4ccc5c(cnn5C)c4F)c2=O)C3)cc2cc([C@H]3CCOC(C)(C)C3)ccc21` (stereo partly shown) [Compound 151], the EC50 is at most 20 nM. With `Cc1cc(-n2nc3c(c2-n2ccn(-c4ccc5c(cnn5C)c4F)c2=O)[C@H](C)N(C(=O)c2cc4cc([C@H]5CCOC(C)(C)C5)ccc4n2[C@@]2(c4noc(=O)[nH]4)C[C@@H]2C)CC32CCN(C(=O)C(F)(F)F)CC2)cc(C)c1F` [Compound 155], the EC50 is at most 20 nM. Turning to `Cc1cc(-n2nc3c(c2-n2ccn(-c4ccc5c(cnn5C)c4F)c2=O)[C@H](C)N(C(=O)c2cc4cc([C@H]5CCOC(C)(C)C5)ccc4n2[C@@]2(c4noc(=O)[nH]4)C[C@@H]2C)CC32CCN(S(C)(=O)=O)CC2)cc(C)c1F` [Compound 156], the 50% effective concentration (EC50) is at most 20 nM. `Cc1cc(-n2nc3c(c2-n2ccn(-c4ccc5c(cnn5C)c4F)c2=O)[C@H](C)N(C(=O)c2cc4cc([C@H]5CCOC(C)(C)C5)ccc4n2[C@@]2(c4noc(=O)[nH]4)C[C@@H]2C)CC32CCN(C(=O)C3CC3)CC2)cc(C)c1F` [Compound 157]: the EC50 was at most 20 nM.

Take `COCC(=O)N1CCC2(CC1)CN(C(=O)c1cc3cc([C@H]4CCOC(C)(C)C4)ccc3n1[C@@]1(c3noc(=O)[nH]3)C[C@@H]1C)[C@@H](C)c1c2nn(-c2cc(C)c(F)c(C)c2)c1-n1ccn(-c2ccc3c(cnn3C)c2F)c1=O` [Compound 158]: the EC50 is at most 20 nM. For `COC(=O)N1CCC2(CC1)CN(C(=O)c1cc3cc([C@H]4CCOC(C)(C)C4)ccc3n1[C@@]1(c3noc(=O)[nH]3)C[C@@H]1C)[C@@H](C)c1c2nn(-c2cc(C)c(F)c(C)c2)c1-n1ccn(-c2ccc3c(cnn3C)c2F)c1=O` [Compound 159], the EC50 is at most 20 nM. Next, `Cc1cc(-n2nc3c(c2-n2ccn(-c4ccc5c(cnn5C)c4F)c2=O)[C@H](C)N(C(=O)c2cc4cc([C@H]5CCOC(C)(C)C5)ccc4n2[C@@]2(c4noc(=O)[nH]4)C[C@@H]2C)CC32CCN(C(=O)[C@H](C)N)CC2)cc(C)c1F` [Compound 160]: at most 20 nM. For `Cc1cc(-n2nc3c(c2-n2ccn(-c4ccc5c(cnn5C)c4F)c2=O)[C@H](C)N(C(=O)c2cc4cc([C@H]5CCOC(C)(C)C5)ccc4n2[C@@]2(c4noc(=O)[nH]4)C[C@@H]2C)CC32CCN(C(=O)CN)CC2)cc(C)c1F` [Compound 161] the value was at most 20 nM.

Turning to `Cc1cc(-n2nc3c(c2-n2ccn(-c4ccc5c(cnn5C)c4F)c2=O)[C@H](C)N(C(=O)c2cc4cc([C@H]5CCOC(C)(C)C5)ccc4n2[C@@]2(c4noc(=O)[nH]4)C[C@@H]2C)CC32CCN(C(N)=O)CC2)cc(C)c1F` [Compound 162], the EC50 is at most 20 nM. Regarding `CNC(=O)N1CCC2(CC1)CN(C(=O)c1cc3cc([C@H]4CCOC(C)(C)C4)ccc3n1[C@@]1(c3noc(=O)[nH]3)C[C@@H]1C)[C@@H](C)c1c2nn(-c2cc(C)c(F)c(C)c2)c1-n1ccn(-c2ccc3c(cnn3C)c2F)c1=O` [Compound 163], the half-maximal effective concentration (EC50) is at most 20 nM. As for `Cc1cc(-n2nc3c(c2-n2ccn(-c4ccc5c(cnn5C)c4F)c2=O)[C@H](C)N(C(=O)c2cc4cc([C@H]5CCOC(C)(C)C5)ccc4n2[C@@]2(c4noc(=O)[nH]4)C[C@@H]2C)CC32CN(C)C2)cc(C)c1F` [Compound 164], the EC50 was at most 20 nM. As to `Cc1cc(-n2nc3c(c2-n2ccn(-c4ccc5c(cnn5C)c4F)c2=O)[C@H](C)N(C(=O)c2cc4cc([C@H]5CCOC(C)(C)C5)ccc4n2[C@@]2(c4noc(=O)[nH]4)C[C@@H]2C)CC32CN(C=O)C2)cc(C)c1F` [Compound 165], the EC50 is at most 20 nM.
